We go through 7 compounds from patent US3985766A, “Bis-imidazolyl-bisphenylmethane and salts thereof” (Bayer Aktiengesellschaft, priority 1968, dated 1976).

The test system of this assay is Trichophyton mentagrophytes. Nature of the assay: effectiveness in vitro against human-pathogenic fungi (fungistatic). Type of assay: cell-based. Conditions: Milieu d'epreuve according to Sabouraud, 28° C. The method, then: I. effectiveness in vitro against human-pathogenic fungi
1. Trichophyton mentagrophytes:
The test medium was Milieu d'epreuve according to Sabouraud, incubation temperature: 28° C.

Usually MIC stands for the lowest concentration that inhibits growth of the organism. As for `c1ccc(C(c2ccccc2)(n2ccnc2)n2ccnc2)cc1` [compound a), bis-imidazolyl-bis-phenylmethane], the minimal inhibitory concentration (MIC) was under 4 µg/mL.
The same measure for `Fc1ccc(C(c2ccccc2)(n2ccnc2)n2ccnc2)cc1` [compound c), bis-imidazolyl-4-fluorophenyl-phenylmethane]: under 4 µg/mL; for `Clc1cccc(C(c2ccccc2)(n2ccnc2)n2ccnc2)c1` [compound f), bis-imidazolyl-3-chlorophenyl-phenylmethane]: under 4 µg/mL; for `Clc1ccc(C(c2ccccc2)(n2ccnc2)n2ccnc2)cc1` [compound b), bis-imidazolyl-4-chlorophenyl-phenylmethane]: under 4 µg/mL.
Next, `Clc1ccccc1C(c1ccccc1)(n1ccnc1)n1ccnc1` [compound e), bis-imidazolyl-2-chlorophenyl-phenylmethane]: under 4 µg/mL.
The same measure for `Fc1ccc(C(c2ccccc2F)(n2ccnc2)n2ccnc2)cc1` [compound d), bis-imidazolyl-2,4'-difluoro-diphenylmethane]: under 4 µg/mL; for `N#Cc1ccc(C(c2ccccc2)(n2ccnc2)n2ccnc2)cc1` [compound g), bis-imidazolyl-4-cyanophenyl-phenylmethane]: under 40 µg/mL.
